Reference: publication PMC4932540, “Development of a New Radiofluorinated Quinoline Analog for PET Imaging of Phosphodiesterase 5 (PDE5) in Brain” (Pharmaceuticals, 2016)

Target: T1, PDE5A1 (Homo sapiens, UniProt O76074)
T1 construct: gene PDE5A; human recombinant PDE5A1 protein
Experiment: cAMP/cGMP-based PDE enzyme assay, recombinant protein
Format: biochemical

- IC50: 1.86 nM
SMILES: CCc1cc(C#N)cc2c(NCc3ccc(OC)c(Cl)c3)c(COCCF)cnc12 [ICF24027, 4-[(3-Chloro-4-methoxybenzyl)amino]-8-ethyl-3-[(2-fluoroethoxy)methyl]quinoline-6-carbonitrile]
